Results reported in ChEMBL document CHEMBL1201862, “PubChem BioAssay data set” (2004).
The source made the active and inactive calls.

What was measured:
cells = format: functional, cell-based; settings: HEK-CNG
Galanin receptor type 3 = target: T1, Galanin receptor type 3 (Homo sapiens, UniProt O60755); test: Fluorescence-based cell-based primary high throughput dose response assay to identify antagonists of the Galanin Receptor 3 (GalR3).; format: functional
T1 sequence (O60755 whole entry): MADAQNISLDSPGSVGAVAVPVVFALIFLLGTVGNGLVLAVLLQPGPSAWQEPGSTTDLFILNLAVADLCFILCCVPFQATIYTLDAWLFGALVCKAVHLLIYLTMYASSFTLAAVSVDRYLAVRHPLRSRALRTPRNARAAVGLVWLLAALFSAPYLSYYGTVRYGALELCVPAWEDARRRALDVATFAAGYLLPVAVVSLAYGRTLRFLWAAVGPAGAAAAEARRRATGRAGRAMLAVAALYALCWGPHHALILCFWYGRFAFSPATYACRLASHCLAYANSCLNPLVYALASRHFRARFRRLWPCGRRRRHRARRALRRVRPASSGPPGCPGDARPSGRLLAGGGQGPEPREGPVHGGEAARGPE

[1] = Counterscreen for activators of the function of SWI/SNF related, matrix associated, actin dependent regulator of chromatin, subfamily a, member 2 (SMARCA2, BRM): Luminescence-based cell-based high throughput dose response assay to identify non-selective compounds using the VP16 reporter assay.; format: functional
[2] = target: SWI/SNF-related matrix-associated actin-dependent regulator of chromatin subfamily A member 2 (Homo sapiens, UniProt P51531); test: Luminescence-based cell-based high throughput dose response assay to identify activators of the function of SWI/SNF related, matrix associated, actin dependent regulator of chromatin, subfamily a, member 2 (SMARCA2, BRM).; format: functional
INS1 = test: beta cell apoptosis inhibitors, cytokine rescue, dose response, luminescence, retest (AID 449756); format: functional, cell-based; settings: Rattus norvegicus;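 further: cell death triggered by IL-1 beta plus TNF-alpha plus IFN-gamma mixture; protective hits raise ATP signal compared with cytokine alone wells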
[3] = growth suppression of PTEN-null colon cells, dose response, cell-based, HCT116 PTEN knockout (AID 1047); format: functional;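 further: HCT116 colon tumor cells with PTEN knocked out; cells exposed to compound for 60 hours before readout; potency for loss of cell viability measured by luminescence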
[4] = inhibitors of clade B AD8 Env fusion, dose response, cell-based, cherry-pick (AID 652062); format: functional;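 further: luciferase signal from cell-cell fusion driven by HIV-1 clade B AD8 Env; potency is for inhibitors of fusion seen as a drop in luminescence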
[5] = inhibitors of HIV Env-driven cell fusion, dose response, cherry-pick (AID 652057); format: functional, cell-based
[6] = NIH-3T3 fibroblast cytotoxicity, dose response, cytotoxicity control, cell-based, fluorescence, Alamar Blue, secondary assay (AID 2327); format: functional;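 further: NIH-3T3 mouse fibroblasts cultured with fluconazole at 8 µg/mL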
[7] = C. albicans growth with fluconazole, confirmation, fluorescence, retest (AID 2467); format: functional, cell-based
[8] = growth suppression of beta-catenin-knockout colon cells, dose response, cell-based, HCT116, human colon tumor (AID 1045); format: functional;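 further: HCT116 colon tumor cells with beta catenin knocked out; cells exposed to compound for 60 hours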
[9] = CEM21 lymphoblast cell cytotoxicity, dose response, cytotoxicity control for viral fusion inhibitor project, CellTiter-Glo luminescence, cherry-picked (AID 652042); format: functional, cell-based;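 further: potency for signal decrease meaning cytotoxicity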
[10] = ZM109 Env clade C HIV-1 fusion inhibitors, dose response, HeLa effector, CEM target cells, luciferase, cherry-pick (AID 652058); format: functional, cell-based
[11] = off-target signal loss in HeLa-CEM21 co-culture – HeLa F-luc CTL cells, cherry-picked, counter-screen for HIV-1 Env fusion inhibitor project, dose response (AID 652040); format: functional, cell-based;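 further: potency for signal decrease marking cytotoxic or nonspecific inhibition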
[12] = target: Photoreceptor-specific nuclear receptor (Homo sapiens, UniProt Q9Y5X4); format: functional, cell-based;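 further: CHO-S cells with Gal4-NCOR and VP16-NR2E3 two-hybrid luciferase reporter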
[13] = ARNT/TACC3 interaction disruptors, potency, confirmation, biochemical, AlphaScreen, cherry-picked samples (AID 651703); format: functional, Homo sapiens;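 further: His-tagged ARNT PAS-B domain paired with GST-TACC3 E629A dimer coactivator fragment; potency of inhibitors that break up the complex and lower AlphaScreen signal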
Caspase-3 = target: T2, Caspase-3 (Homo sapiens, UniProt P42574); test: SAR Analysis of small molecule inhibitors of Sentrin-specific proteases (SENPs) using a Caspase-3 Selectivity assay. [Related pubchem assays (depositor defined):AID2540, AID2599, AID434973, AID489001]; format: functional
T2 sequence (P42574 whole entry): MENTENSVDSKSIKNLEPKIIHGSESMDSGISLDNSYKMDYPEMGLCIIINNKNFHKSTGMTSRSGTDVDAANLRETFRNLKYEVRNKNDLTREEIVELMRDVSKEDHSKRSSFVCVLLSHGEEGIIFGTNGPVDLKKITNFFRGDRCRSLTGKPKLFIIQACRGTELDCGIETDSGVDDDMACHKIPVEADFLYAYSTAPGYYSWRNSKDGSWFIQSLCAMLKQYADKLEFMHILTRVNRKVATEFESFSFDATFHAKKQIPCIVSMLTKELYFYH

[14] = target: T3, Sentrin-specific protease 8 (Homo sapiens, UniProt Q96LD8); test: SENP8 protease inhibitors, SAR follow-up, biochemical, luminescence (AID 504501); format: functional
T3 sequence (Q96LD8 whole entry): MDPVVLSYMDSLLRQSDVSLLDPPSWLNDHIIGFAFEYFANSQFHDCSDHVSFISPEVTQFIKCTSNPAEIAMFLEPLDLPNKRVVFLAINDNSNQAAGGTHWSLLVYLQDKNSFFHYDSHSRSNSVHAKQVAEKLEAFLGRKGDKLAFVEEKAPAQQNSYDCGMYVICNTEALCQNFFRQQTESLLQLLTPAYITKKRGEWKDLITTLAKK

[15] = target: T4, Sentrin-specific protease 7 (Homo sapiens, UniProt Q9BQF6); test: SENP7 protease inhibitors, SAR follow-up, biochemical, luminescence (AID 504497); format: functional
T4 sequence (Q9BQF6 whole entry): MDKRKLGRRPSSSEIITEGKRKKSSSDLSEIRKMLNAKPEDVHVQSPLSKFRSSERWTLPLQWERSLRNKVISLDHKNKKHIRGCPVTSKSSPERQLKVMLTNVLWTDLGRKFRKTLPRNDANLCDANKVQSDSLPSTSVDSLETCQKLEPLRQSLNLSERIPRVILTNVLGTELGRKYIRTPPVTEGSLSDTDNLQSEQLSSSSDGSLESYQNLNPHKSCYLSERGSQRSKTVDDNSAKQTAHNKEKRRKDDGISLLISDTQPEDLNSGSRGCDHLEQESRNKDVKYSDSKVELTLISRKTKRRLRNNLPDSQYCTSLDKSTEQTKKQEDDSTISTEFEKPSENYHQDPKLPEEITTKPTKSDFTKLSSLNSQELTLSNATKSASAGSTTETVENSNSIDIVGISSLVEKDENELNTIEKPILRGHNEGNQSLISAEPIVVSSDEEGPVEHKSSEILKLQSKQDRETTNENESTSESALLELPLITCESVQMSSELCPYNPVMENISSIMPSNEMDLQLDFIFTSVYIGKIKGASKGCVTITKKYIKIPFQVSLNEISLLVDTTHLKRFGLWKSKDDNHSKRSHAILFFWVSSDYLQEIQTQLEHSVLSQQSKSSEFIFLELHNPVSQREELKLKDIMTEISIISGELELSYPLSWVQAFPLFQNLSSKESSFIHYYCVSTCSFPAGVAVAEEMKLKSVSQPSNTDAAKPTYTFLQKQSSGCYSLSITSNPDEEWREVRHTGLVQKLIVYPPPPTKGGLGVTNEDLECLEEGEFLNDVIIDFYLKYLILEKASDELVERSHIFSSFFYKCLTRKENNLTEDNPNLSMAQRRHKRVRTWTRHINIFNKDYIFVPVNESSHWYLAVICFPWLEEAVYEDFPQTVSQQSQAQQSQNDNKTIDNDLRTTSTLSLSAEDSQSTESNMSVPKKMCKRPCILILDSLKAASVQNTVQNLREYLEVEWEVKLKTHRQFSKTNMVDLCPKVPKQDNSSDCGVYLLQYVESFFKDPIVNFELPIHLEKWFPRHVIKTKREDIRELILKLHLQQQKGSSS

[16] = target: T5, Sentrin-specific protease 6 (Homo sapiens, UniProt Q9GZR1); test: SAR Analysis of small molecule inhibitors of Sentrin-specific protease 6 (SENP6) using a Luminescent assay. [Related pubchem assays (depositor defined):AID2582, AID2599]; format: functional
T5 sequence (Q9GZR1 whole entry): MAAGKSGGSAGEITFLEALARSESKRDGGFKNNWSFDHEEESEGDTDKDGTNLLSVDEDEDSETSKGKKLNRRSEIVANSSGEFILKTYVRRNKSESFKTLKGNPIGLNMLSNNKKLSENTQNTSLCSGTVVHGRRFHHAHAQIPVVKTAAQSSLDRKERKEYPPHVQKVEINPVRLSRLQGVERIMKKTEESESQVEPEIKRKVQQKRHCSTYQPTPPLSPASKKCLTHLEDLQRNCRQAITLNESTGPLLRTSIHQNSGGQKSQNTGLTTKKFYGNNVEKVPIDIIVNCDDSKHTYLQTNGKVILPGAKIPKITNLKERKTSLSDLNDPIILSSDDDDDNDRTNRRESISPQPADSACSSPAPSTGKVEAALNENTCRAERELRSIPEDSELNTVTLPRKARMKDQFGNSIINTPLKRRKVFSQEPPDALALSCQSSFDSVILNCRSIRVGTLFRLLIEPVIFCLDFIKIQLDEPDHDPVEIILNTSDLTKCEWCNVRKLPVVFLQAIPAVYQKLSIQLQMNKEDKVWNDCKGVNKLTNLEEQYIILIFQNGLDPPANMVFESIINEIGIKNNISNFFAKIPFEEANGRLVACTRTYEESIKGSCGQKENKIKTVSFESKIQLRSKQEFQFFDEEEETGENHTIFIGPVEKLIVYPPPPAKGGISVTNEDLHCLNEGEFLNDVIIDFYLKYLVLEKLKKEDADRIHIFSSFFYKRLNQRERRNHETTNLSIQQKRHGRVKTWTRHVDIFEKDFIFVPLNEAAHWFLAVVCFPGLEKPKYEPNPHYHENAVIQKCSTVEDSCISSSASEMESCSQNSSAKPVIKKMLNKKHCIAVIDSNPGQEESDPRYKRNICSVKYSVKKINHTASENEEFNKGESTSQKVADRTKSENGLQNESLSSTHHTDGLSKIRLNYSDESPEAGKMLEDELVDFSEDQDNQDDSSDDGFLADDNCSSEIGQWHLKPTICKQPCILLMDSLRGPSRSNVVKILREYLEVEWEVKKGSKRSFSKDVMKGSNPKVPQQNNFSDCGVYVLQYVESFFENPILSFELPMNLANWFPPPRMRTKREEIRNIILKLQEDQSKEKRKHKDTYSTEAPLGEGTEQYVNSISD

SN12K1 = test: cells; format: functional; settings: Homo sapiens
P388 = test: cells; format: functional; settings: Mus musculus
P388/ADR = test: cells; format: functional; settings: Mus musculus

Chain of Photoreceptor-specific nuclear receptor (Q9Y5X4 whole entry, the tested form may be a part): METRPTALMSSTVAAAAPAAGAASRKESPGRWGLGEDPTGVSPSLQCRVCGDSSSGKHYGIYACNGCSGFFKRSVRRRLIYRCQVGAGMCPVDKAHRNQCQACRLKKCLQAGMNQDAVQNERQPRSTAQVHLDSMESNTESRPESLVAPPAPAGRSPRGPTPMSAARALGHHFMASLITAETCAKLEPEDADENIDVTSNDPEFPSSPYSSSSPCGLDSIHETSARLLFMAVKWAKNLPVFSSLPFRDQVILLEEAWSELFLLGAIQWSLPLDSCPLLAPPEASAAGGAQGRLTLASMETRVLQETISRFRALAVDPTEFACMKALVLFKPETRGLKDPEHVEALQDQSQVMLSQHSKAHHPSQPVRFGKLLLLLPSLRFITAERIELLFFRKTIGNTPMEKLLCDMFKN
Chain of SWI/SNF-related matrix-associated actin-dependent regulator of chromatin subfamily A member 2 (P51531 whole entry): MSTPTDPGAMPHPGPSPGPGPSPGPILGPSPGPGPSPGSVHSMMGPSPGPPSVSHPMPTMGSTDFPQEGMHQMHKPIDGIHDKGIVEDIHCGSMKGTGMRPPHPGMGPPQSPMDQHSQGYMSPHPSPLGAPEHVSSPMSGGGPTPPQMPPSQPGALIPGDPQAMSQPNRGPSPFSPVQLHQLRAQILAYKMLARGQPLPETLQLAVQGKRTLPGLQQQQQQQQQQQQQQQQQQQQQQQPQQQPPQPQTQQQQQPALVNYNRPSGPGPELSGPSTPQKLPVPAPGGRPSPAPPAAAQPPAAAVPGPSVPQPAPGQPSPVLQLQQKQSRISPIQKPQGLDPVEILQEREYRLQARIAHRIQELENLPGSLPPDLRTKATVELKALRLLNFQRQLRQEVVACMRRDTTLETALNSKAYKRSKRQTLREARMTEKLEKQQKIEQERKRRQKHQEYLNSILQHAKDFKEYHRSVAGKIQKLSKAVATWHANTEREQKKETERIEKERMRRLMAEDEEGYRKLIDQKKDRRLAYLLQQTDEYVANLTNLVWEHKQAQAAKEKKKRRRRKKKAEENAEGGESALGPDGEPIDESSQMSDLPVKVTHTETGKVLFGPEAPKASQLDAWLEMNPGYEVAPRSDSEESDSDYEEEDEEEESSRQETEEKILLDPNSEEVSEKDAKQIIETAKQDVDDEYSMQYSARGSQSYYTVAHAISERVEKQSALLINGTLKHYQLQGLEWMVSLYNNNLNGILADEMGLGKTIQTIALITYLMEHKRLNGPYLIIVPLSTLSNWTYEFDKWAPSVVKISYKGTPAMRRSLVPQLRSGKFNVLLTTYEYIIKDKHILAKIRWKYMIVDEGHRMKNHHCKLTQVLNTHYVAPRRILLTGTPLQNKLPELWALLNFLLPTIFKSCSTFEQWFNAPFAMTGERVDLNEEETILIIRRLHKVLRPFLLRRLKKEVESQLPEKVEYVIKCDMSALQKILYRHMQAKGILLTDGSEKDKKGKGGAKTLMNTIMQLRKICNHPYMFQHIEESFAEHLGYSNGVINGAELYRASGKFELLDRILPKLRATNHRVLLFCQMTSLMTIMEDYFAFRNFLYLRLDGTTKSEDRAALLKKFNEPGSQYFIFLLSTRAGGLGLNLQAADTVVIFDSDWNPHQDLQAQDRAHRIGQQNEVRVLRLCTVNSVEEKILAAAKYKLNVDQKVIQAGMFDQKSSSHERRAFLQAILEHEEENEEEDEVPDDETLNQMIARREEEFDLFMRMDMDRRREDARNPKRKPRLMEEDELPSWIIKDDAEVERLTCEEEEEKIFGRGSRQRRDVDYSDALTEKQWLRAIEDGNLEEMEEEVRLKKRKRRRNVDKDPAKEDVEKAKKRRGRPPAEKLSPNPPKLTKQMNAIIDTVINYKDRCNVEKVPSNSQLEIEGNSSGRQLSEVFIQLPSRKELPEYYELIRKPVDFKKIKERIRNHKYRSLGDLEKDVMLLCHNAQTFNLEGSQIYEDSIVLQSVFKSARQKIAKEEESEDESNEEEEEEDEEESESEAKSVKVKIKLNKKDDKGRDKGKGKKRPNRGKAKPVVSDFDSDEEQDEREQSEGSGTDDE

Structure (SMILES): Cc1n[nH]c(NCCO)c1[N+](=O)[O-]
- EC50 (cells): > 29.9 µM (inactive)
- IC50 (Galanin receptor type 3): > 29.9 µM (inactive)

Structure (SMILES): O=C(c1noc2c1CCc1ccccc1-2)N1CCOCC1
- EC50 [1]: > 91.2 µM (inactive)
- EC50 [2]: > 91.2 µM (inactive)

Structure (SMILES): COc1cccc(CNCCc2c[nH]c3ccccc23)c1OCc1ccccc1F
- AC50 (INS1): 8.08 µM (active)
- EC50 [3]: 5.56 µM (active)
- AC50 [4]: 7.5 µM (active)
- AC50 [5]: 3.52 µM (active)
- EC50 [6]: > 150 µM (inconclusive)
- EC50 [7]: 1.5 µM (active)
- EC50 [8]: 4.65 µM (active)
- AC50 [9]: 9.93 µM (active)
- AC50 [10]: 25.6 µM (active)
- AC50 [11]: 23.2 µM (active)

Structure (SMILES): Nc1ccc(O)cc1C(=O)OCC(=O)c1ccc(C2CCCCC2)cc1
- AC50 [4]: 2.09 µM (active)
- AC50 [9]: 2.3 µM (active)
- AC50 [10]: 0.865 µM (active)
- AC50 [11]: 40.9 µM (active)

Structure (SMILES): O=C(Nc1ccc(Cn2cccn2)cc1)c1ccc(COc2ccccc2Br)cc1
- IC50 [12]: 4.43 µM (active)

Structure (SMILES): CC1=Nn2c(nnc2-c2ccccn2)SC1
- AC50 [13]: 84.7 µM (active)

Structure (SMILES): COc1ccc(OC)c(-c2cc(C(=O)N3CCN(c4ncccn4)CC3)c3ccccc3n2)c1
- AC50 [13]: 127 µM (active)

Structure (SMILES): Cc1onc(-c2ccccc2Cl)c1C(=O)Nc1nc2c(s1)CCCC2
- IC50 [12]: 1.25 µM (active)

Structure (SMILES): COc1ccc(/C=N/Nc2nc(NCc3ccccc3)nc(N(C)C)n2)cc1Br
- IC50 (Caspase-3): > 99 µM (inactive)
- IC50 [14]: > 99 µM (inactive)
- IC50 [15]: > 99 µM (inactive)
- IC50 [16]: > 99 µM (inactive)

Structure (SMILES): C(/C=C/c1ccccc1)=N/Nc1cc(N2CCCC2)nc(N2CCCC2)n1
- IC50 (Caspase-3): > 99 µM (inactive)
- IC50 [14]: 43.5 µM (active)
- IC50 [15]: 32.9 µM (active)
- IC50 [16]: 11 µM (active)

Structure (SMILES): CCOc1ccc(C(=O)Nc2ccc3ccccc3c2)cc1Br
- IC50 (Caspase-3): > 99 µM (inactive)
- IC50 [14]: > 99 µM (inactive)
- IC50 [15]: > 99 µM (inactive)
- IC50 [16]: > 99 µM (inactive)

Structure (SMILES): CN(C)CCSc1nccc(-c2ccc(-c3ccnc(SCCN(C)C)n3)s2)n1
- GI50 (SN12K1): 11.1 µM (inactive)
- GI50 (P388): 1.04 µM (active)
- GI50 (P388/ADR): 2.35 µM (inactive)

Structure (SMILES): COc1nc(N)nc2nc[nH]c12
- GI50 (SN12K1): 383 µM (inactive)
- GI50 (P388): 339 µM (inactive)
- GI50 (P388/ADR): 265 µM (inactive)

Structure (SMILES): COc1cc2c(cc1OC)C(OC)N(C)c1c-2ccc2cc3c(cc12)OCO3 (stereo unspecified)
- GI50 (SN12K1): 0.652 µM (active)
- GI50 (P388): 0.667 µM (active)
- GI50 (P388/ADR): 2.58 µM (inactive)

Structure (SMILES): NC1(C(=O)O)CCc2ccc(N(CCCl)CCCl)cc2C1 (stereo unspecified)
- GI50 (SN12K1): 64.1 µM (inactive)
- GI50 (P388): 1.67 µM (inactive)
- GI50 (P388/ADR): 10.9 µM (inactive)
